Laboratory results taken from US20090209494A1, “21-DEOXYMACBECIN ANALOGUES USEFUL AS ANTITUMOR AGENTS” (priority 2005, published 2009).
In brackets after ≈: the same amount, converted by molar mass.

How the values were obtained:
Solubility assay = type: physicochemical; details: aqueous buffer, kinetic from dmso stock; 2% DMSO in PBS pH 7.3; shaken up to six hours; maximum measurable 0.5 mM
Description: Solutions (25 mM) of the test compounds were prepared by dissolving 3-5 mg aliquots in the appropriate amount of DMSO.
Aliquots (0.01 mL) were added to 0.490 mL of pH 7.3 PBS in glass vials. For each time point, 3 PBS vials were prepared in amber glass vials. For the six hour time point triplicate aliquots in DMSO were also prepared.
The resulting 0.5 mM solutions were shaken for up to six hours, with vials removed for analysis at 1, 3 and 6 hours. Samples were analysed by HPLC (0.025 mL injections).
Solubility in 2% DMSO in PBS at each time point was determined by comparing total peak areas for each chromatogram with mean total peak area for chromatograms produced from the corresponding 6 hour DMSO solutions. (Mean total peak area in DMSO solutions was assumed to be equivalent to a 0.5 mM solution).

DU145 [1] = assay: in vitro anticancer activity in combination with compound 14, modified propidium iodide assay; type: cell-based, human
Description: Standard agents were applied at 10 concentrations in sextuplicates in half-log increments. […] Growth inhibition is expressed as treated/control×100 (% T/C), and IC70 values for each combination were determined by plotting compound concentration versus cell viability.
In vitro evaluation of 14 for anticancer activity when combined with standard cytotoxic agents against the tumour cell line DU145 in a monolayer proliferation assay was carried out as described in the general methods using a modified propidium iodide assay.

MCF7 = assay: monolayer proliferation assay (modified propidium iodide assay), MCF7; type: cell-based, human; details: 4 days exposure, median of duplicate experiments
Description: (§1) In vitro evaluation of compounds for anticancer activity in a panel of 38 human tumour cell lines in a monolayer proliferation assay was carried out at the Oncotest Testing Facility, Institute for Experimental Oncology, Oncotest GmbH, Freiburg.
(§2) The Oncotest cell lines are established from human tumor xenografts as described by Roth et al., (1999). The origin of the donor xenografts was described by Fiebig et al., (1999). Other cell lines are either obtained from the NCl (H460, SF-268, OVCAR-3, DU145, MDA-MB-231, MDA-MB-468) or purchased from DSMZ, Braunschweig, Germany (LNCAP).
(§3) All cell lines, unless otherwise specified, were grown at 37° C. in a humidified atmosphere (95% air, 5% CO2) in a ‘ready-mix’ medium containing RPMI 1640 medium, 10% fetal calf serum, and 0.1 mg/mL gentamicin (PAA, Cölbe, Germany).
(§4) A modified propidium iodide assay was used to assess the effects of the test compound(s) on the growth of human tumour cell lines (Dengler et al., (1995)).
(§5) Briefly, cells were harvested from exponential phase cultures by trypsinization, counted and plated in 96 well flat-bottomed microtitre plates at a cell density dependent on the cell line (5-10.000 viable cells/well). After 24 h recovery to allow the cells to resume exponential growth, 0.010 mL of culture medium (6 control wells per plate) or culture medium containing a 21-deoxymacbecin analogue was added to the wells. Each concentration was plated in triplicate. […] Following 4 days of continuous exposure, cell culture medium with or without test compound was replaced by 0.2 mL of an aqueous propidium iodide (PI) solution (7 mg/L). To measure the proportion of living cells, cells were permeabilized by freezing the plates. After thawing the plates, fluorescence was measured using the Cytofluor 4000 microplate reader (excitation 530 nm, emission 620 nm), giving a direct relationship to the total number of viable cells.
(§6) Growth inhibition was expressed as treated/control×100 (% T/C). For active compounds, IC70 values were estimated by plotting compound concentration versus cell viability.
(§7) In vitro evaluation of the test compounds for anticancer activity in a panel of human tumour cell lines in a monolayer proliferation assay was carried out as described in the general methods using a modified propidium iodide assay.

DU145 [2] = assay: monolayer proliferation assay (modified propidium iodide assay), DU145; type: cell-based, human; details: 4 days exposure, median of duplicate experiments
Description: as §1, §2, §3, §4, §5, §6, §7

251L = assay: monolayer proliferation assay (modified propidium iodide assay), 251L; type: cell-based, human; details: 4 days exposure, median of duplicate experiments
Description: as §1, §2, §3, §4, §5, §6, §7

SF268 = assay: monolayer proliferation assay (modified propidium iodide assay), SF268; type: cell-based, human; details: 4 days exposure, median of duplicate experiments
Description: as §1, §2, §3, §4, §5, §6, §7

394NL = assay: monolayer proliferation assay (modified propidium iodide assay), 394NL; type: cell-based, human; details: 4 days exposure, median of duplicate experiments
Description: as §1, §2, §3, §4, §5, §6, §7

Yeast Hsp90 = Yeast Hsp90 (Saccharomyces cerevisiae, UniProt P02829); assay: Hsp90 binding, isothermal titration calorimetry; details: yeast Hsp90; ITC at 30° C.; 2% DMSO; read-out: Kd values for Hsp90 binding
Chain of Yeast Hsp90 (P02829 whole entry): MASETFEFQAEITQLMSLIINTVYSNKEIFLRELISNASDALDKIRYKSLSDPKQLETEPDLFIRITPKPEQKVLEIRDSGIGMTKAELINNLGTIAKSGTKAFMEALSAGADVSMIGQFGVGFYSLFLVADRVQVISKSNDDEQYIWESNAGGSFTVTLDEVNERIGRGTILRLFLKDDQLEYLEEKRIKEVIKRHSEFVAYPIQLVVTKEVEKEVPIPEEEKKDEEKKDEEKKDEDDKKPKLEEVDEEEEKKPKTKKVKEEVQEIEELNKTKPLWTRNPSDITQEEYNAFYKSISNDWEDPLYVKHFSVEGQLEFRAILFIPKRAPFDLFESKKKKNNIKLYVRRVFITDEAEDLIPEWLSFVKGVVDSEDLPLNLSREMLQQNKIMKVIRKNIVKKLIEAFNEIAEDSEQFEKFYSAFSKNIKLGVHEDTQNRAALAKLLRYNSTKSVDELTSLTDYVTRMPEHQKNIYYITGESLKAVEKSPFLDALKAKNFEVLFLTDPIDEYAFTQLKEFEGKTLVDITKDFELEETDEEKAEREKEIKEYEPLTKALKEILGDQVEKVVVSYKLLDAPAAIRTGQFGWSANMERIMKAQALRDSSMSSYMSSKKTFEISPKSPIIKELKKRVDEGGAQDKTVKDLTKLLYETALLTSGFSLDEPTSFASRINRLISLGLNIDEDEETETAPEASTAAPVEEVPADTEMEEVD
Description: Yeast Hsp90 was dialysed against 20 mM Tris pH 7.5 containing 1 mM EDTA and 5 mM NaCl and then diluted to 0.008 mM in the same buffer, but containing 2% DMSO. The test compounds were dissolved in 100% DMSO at a concentration of 50 mM and subsequently diluted to 0.1 mM in the same buffer as for Hsp90 with 2% DMSO. Heats of interaction were measured at 30° C. on a MSC system (Microcal), with a cell volume of 1.458 mL. 10 aliquots of 0.027 mL of 0.100 mM of each test compound were injected into 0.008 mM yeast Hsp90. Heats of dilution were determined in a separate experiment by injecting the test compound into buffer containing 2% DMSO, and the corrected data fitted using a nonlinear least square curve-fitting algorithm (Microcal Origin) with three floating variables: stoichiometry, binding constant and change in enthalpy of interaction.

H460 = assay: monolayer proliferation assay (modified propidium iodide assay), H460; type: cell-based, human; details: 4 days exposure, median of duplicate experiments
Description: as §1, §2, §3, §4, §5, §6, §7

OVCAR3 = assay: monolayer proliferation assay (modified propidium iodide assay), OVCAR3; type: cell-based, human; details: 4 days exposure, median of duplicate experiments
Description: as §1, §2, §3, §4, §5, §6, §7

1138L = assay: monolayer proliferation assay (modified propidium iodide assay), 1138L; type: cell-based, human; details: 4 days exposure, median of duplicate experiments
Description: as §1, §2, §3, §4, §5, §6, §7

LNCAP = assay: monolayer proliferation assay (modified propidium iodide assay), LNCAP; type: cell-based, human; details: 4 days exposure, median of duplicate experiments
Description: as §1, §2, §3, §4, §5, §6, §7

SMILES | solubility (Solubility assay) [µM] | Test/Control (%) at drug concentration (MCF7; 1 μg/mL) [%] | Test/Control (%) at drug concentration (MCF7; 10 μg/mL) [%] | Test/Control (%) at drug concentration (DU145 [2]; 1 μg/mL) [%] | Test/Control (%) at drug concentration (DU145 [2]; 10 μg/mL) [%] | Test/Control (%) at drug concentration (251L; 1 μg/mL) [%] | Test/Control (%) at drug concentration (251L; 10 μg/mL) [%] | Test/Control (%) at drug concentration (SF268; 1 μg/mL) [%] | Test/Control (%) at drug concentration (SF268; 10 μg/mL) [%] | Test/Control (%) at drug concentration (394NL; 1 μg/mL) [%] | Test/Control (%) at drug concentration (394NL; 10 μg/mL) [%] | Kd (Yeast Hsp90) [nM] | Test/Control (%) at drug concentration (H460; 1 μg/mL) [%] | Test/Control (%) at drug concentration (H460; 10 μg/mL) [%] | Test/Control (%) at drug concentration (OVCAR3; 1 μg/mL) [%] | Test/Control (%) at drug concentration (OVCAR3; 10 μg/mL) [%] | Test/Control (%) at drug concentration (1138L; 1 μg/mL) [%] | Test/Control (%) at drug concentration (1138L; 10 μg/mL) [%] | Test/Control (%) at drug concentration (LNCAP; 1 μg/mL) [%] | Test/Control (%) at drug concentration (LNCAP; 10 μg/mL) [%] | further results
CO[C@H]1[C@@H](OC)C[C@H](C)[C@@H](OC)c2cc(O)cc(c2O)NC(=O)/C(C)=C/C=C\[C@H](C)[C@@H](OC(N)=O)/C(C)=C/[C@@H]1C [18,21-dihydromacbecin] | 136 (≈ 76.3 µg/mL) | – | – | – | – | – | – | – | – | – | – | – | – | – | – | – | – | – | – | – | –
O=NN(CCCl)C(=O)NC1CCCCC1 [CCNU, Cyclohexylchloroethylnitrosurea] | – | – | – | – | – | – | – | – | – | – | – | – | – | – | – | – | – | – | – | – | IC70 of standard agent (DU145 [1]; combined with 14 at 80 nM): 11.30 µg/mL; IC70 of standard agent (DU145 [1]; combined with 14 at 120 nM): 9.34 µg/mL; IC70 of standard agent (DU145 [1]; combined with 14 at 160 nM): 1.63 µg/mL; IC70 of standard agent (DU145 [1]; concentration of 14: 0 nM (standard agent alone)): 19.74 µg/mL
CO[C@H]1C[C@H](C)Cc2cc(O)cc(c2)NC(=O)/C(C)=C/CC[C@H](C)[C@@H](OC(N)=O)/C(C)=C/[C@H](C)[C@H]1O [Compound 14, 7-O-carbamoylpre-macbecin] | ≥ 500 | 11 | 9 | 8 | 6 | 18 | 16 | 18 | 16 | 14 | 13 | 3.2 | 3 | 4 | 27 | 28 | 13 | 14 | 13 | 12 | –
CO[C@H]1C[C@H](C)[C@@H](O)c2cc(O)cc(c2)NC(=O)/C(C)=C/CC[C@H](C)[C@@H](OC(N)=O)/C(C)=C/[C@H](C)[C@H]1O [Compound 15, 7-O-carbamoyl-15-hydroxypre-macbecin] | ≥ 500 | 99 | 19 | 99 | 18 | 86 | 29 | 95 | 27 | 75 | 18 | 6 | 87 | 23 | 100 | 41 | 101 | 25 | 58 | 16 | –
COC1=C2C[C@@H](C)C[C@H](OC)[C@H](O)[C@@H](C)/C=C(\C)[C@H](OC(N)=O)[C@@H](OC)/C=C\C=C(/C)C(=O)NC(=CC1=O)C2=O [Geldanamycin, geldanamycin] | 1.7 (≈ 0.953 µg/mL) | – | – | – | – | – | – | – | – | – | – | – | – | – | – | – | – | – | – | – | –
